Experiment [1] concerns HULLK. Kind of experiment: qPCR of HULLK (LCK 3'UTR / exon 13) transcript levels in response to hormone and AR, p300 or Brd4 inhibition. The settings on record: for HULLK expression in response to R1881: 1 nM R1881; for R1881-induced increase in LCK 3'UTR transcript levels: 1 nM R1881, 24 hrs. In kind it is cell-based, human. As for the experimental part:
FIGS. 2A through 2E illustrate that HULLK is an AR-regulated lncRNA. […] LNCaP and C42 cells were transduced with two independent shRNAs to LCK and treated with 0-1 nM R1881. RNA was collected on Day 4 and LCK transcript levels were determined using LCK primers targeting the 3′UTR. […] LNCaP and C42 cells were seeded for 48 hrs, and then, treated with 1 nM R1881 in the presence or absence of 10 μM enzalutamide. RNA was collected 24 hrs after treatment and LCK transcript levels were determined by qPCR using LCK primers targeting the 3′UTR. C4-2, DU145, and PC3 cells were seeded in CSS media for 48 hrs, and then, treated with 1 nM R1881 for 16 hrs. RNA was collected and LCK transcript levels were determined using LCK primers targeting the 3′UTR. […] FIG. 2E illustrates that Brd4 inhibition reduces the hormone induction of HULLK, n=3. LNCaP, C42, or Jurkat cells were seeded for 48 hrs in the appropriate growth media, and then, treated with 1 nM R1881 in the presence or absence of 0.3 μM A-485 or 0.1 μM JQ1. RNA was collected 24 hrs after treatment and LCK transcript levels were determined by qPCR using LCK primers targeting exon 13 or 3′UTR. PSA and TMPRSS2 transcripts were determined to verify the efficacy of p300 and Brd4 inhibition.
FIGS. 7A and 7B illustrate the regulation of HULLK by the AR in breast cancer cells. […] LNCaP, MCF7, BT549, and MDA-MD-231 cells were seeded in the appropriate growth media, and whole cell lysates were collected 48 hrs later and blotted for AR21 and ERK1/2. […] MCF7, BT549, and MDA-MB-231 cells were seeded in CSS media for 48 hrs, and then, treated with 1 nM R1881 for 16 hrs. RNA was collected and LCK transcript levels were determined using LCK primers targeting the 3′UTR, n=3.
Cell Culture and Reagents. LNCaP and C4-2 cells (a gift from Dr. L. W. K. Chung) were grown in DMEM:F12 (Invitrogen) with 5% Non-Heat-Inactivated serum (Gemini) and 1% Insulin-Transferrin-Selenium-Ethanolamine (ThermoFisher). CWR22Rv1 (Rv1), VCaP, PC3 (gifts from Drs. Steven Balk, Karen Knudsen, and Chung, respectively), WMPY-1 (ATCC), MCF7, BT549 and MDA-MB-231 (gifts from Dr. Amy Bouton) were grown in DMEM (Invitrogen) with 10% Heat-Inactivated serum. DU145 (a gift from Dr. Chung), PANC1 (a gift from Dr. J. Thomas Parsons), HeLa and Jurkat cells (gifts from Dr. Tim Bender) were grown in RPMI-1640 (Invitrogen) with 10% Heat-Inactivated serum. LHS cells (a gift from Dr. William Hahn) were grown in ProstaLife Epithelial Cell Medium (Lifeline). RWPE-1 (ATCC) cells were grown in Keratinocyte-Serum-Free Media (Invitrogen). For growth and RNA experiments, phenol-red free DMEM:F12 media with 5% Charcoal-Stripped Serum (CSS) (Gemini) was used.
RNA Isolation, qPCR and ddPCR: RNA was collected using TRIzol and quantitated using a NanoDrop 2000 UV-Vis Spectrophotometer (ThermoFisher). cDNA was synthesized using Superscript IV VILO cDNA synthesis kit (Invitrogen). Quantitative real-time PCR (qPCR) was performed as previously described (17,18). Droplet digital PCR (ddPCR) was executed according to the manufacturer's protocol (Bio-Rad).
To assess whether this lncRNA is modulated by hormone, transcript levels of this lncRNA were quantified by qPCR using 3′UTR primers in LNCaP and C4-2 cells transduced in the presence of increasing concentrations of R1881 (FIG. 2A). […] This increase was inhibited in the presence of two independent LCK shRNAs in both cell lines.
This hormone regulation was confirmed by measuring transcript amounts in LNCaP and C4-2 cells treated with vehicle or R1881 in the presence or absence of the anti-androgen enzalutamide (FIG. 2B). As expected, there was an 8-fold and 12-fold R1881-induced increase in LCK 3′UTR transcript levels in LNCaP and C4-2 cells, respectively. […] Androgen deprivation influenced message levels negligibly in LNCaP cells, but decreased transcript amounts of this lncRNA by approximately 2.9-fold in C4-2 cells (FIG. 2B, C4-2 vehicle vs. media). […]
A general note: In qPCR the cycle at which signal appears reflects the starting amount.

The test system of experiment [2] is HULLK. Kind of experiment: qPCR of HULLK (LCK E11, LCK 3'UTR) in cytoplasmic and nuclear fractions of LNCaP cells. Type of experiment: cell-based, human. The settings on record: 1 nM R1881, 24 hrs. As for the experimental part:
FIGS. 3A and 3B illustrate the results of studies designed to characterize HULLK. […] LNCaP cells were seeded for 48 hrs and treated with 1 nM R1881 for 24 hrs. RNA was collected and cDNA was synthesized using strand-specific primers. qPCR was performed with two independent LCK primer sets that amplify HULLK, n=3. […] LNCaP cells were seeded for 48 hrs and treated with 1 nM R1881 for 24 hrs. Whole cell lysates were separated into cytoplasmic and nuclear fractions by centrifugation. RNA was collected from each fraction and cDNA was synthesized using the iScript cDNA synthesis kit. qPCR was performed with two independent LCK primer sets that amplify HULLK, and cytoplasmic and nuclear control genes, n=3.
Some lncRNAs show preferential accumulation in the cytoplasm or nucleus, while other lncRNAs are equally expressed in both compartments. To determine the intracellular localization of HULLK, total RNA was collected to synthesize cDNA from cytoplasmic and nuclear fractions of LNCaP cells starved of hormone or exposed to 1 nM R1881 for 24 hrs and carried out qPCR with LCK E11 and LCK 3′UTR primers to amplify HULLK.

These results are taken from patent publication US12319967B2, “Methods and compositions for diagnosing and treating prostate cancer based on long noncoding RNA overlapping the LCK gene that regulates prostate cancer cell growth” (University of Virginia Patent Foundation, priority 2019, dated 2025).

Regarding `C[C@]1(O)CC[C@H]2[C@@H]3CCC4=CC(=O)CCC4=C3C=C[C@@]21C` [R1881], the “R1881-induced increase in this lncRNA (HULLK)” value in the experiment on HULLK [1] (AR-null DU145 and PC3 cells, 1 nM R1881, 16 hrs) is given as “no R1881-induced increase”. Moreover, the entries for the “HULLK expression in response to R1881” value with HULLK [1] (BT549 or MDA-MB-231 cells) and with HULLK [1] (MCF7 cells) were “not” and “increases”, respectively. Further, the entries for the “R1881-induced increase in LCK 3'UTR transcript levels” value in the experiment on HULLK [1] (C4-2 cells) and in the experiment with HULLK [1] (LNCaP cells) were 12 fold and 8 fold, respectively. Moreover, in the experiment with HULLK [1] (LNCaP and C4-2 cells, 0-1 nM R1881, 3'UTR primers), the “lncRNA transcripts in response to increasing concentrations of R1881” value is “dose-dependent increase”. For the same compound, the “hormone increase of LCK 3'UTR transcript levels” value in the experiment on HULLK [2] (cytoplasmic fraction) was ~7.6 fold. In addition, the “hormone increase of LCK E11 transcript levels” value in the experiment on HULLK [2] (cytoplasmic fraction) is on record as “approximately 5.3 fold”. In addition, in the experiment with HULLK [2] (nuclear fraction), the “nuclear transcript amounts (LCK E11, LCK 3'UTR) in response to androgens” value is “not influenced by androgens”.
